In PubChem BioAssay (NCI):
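The concentration for 50% growth inhibition is given as GI50. TGI denotes the concentration required for complete inhibition of growth.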

Columns and labels:
Assay in all cases: NCI tumour cell line growth inhibition, 384-well format
[1] = system: 786-0 renal
[2] = system: A498 renal
[3] = system: A549 NSCLC
[4] = system: ACHN renal
[5] = system: BT-549 breast
[6] = system: CAKI-1 renal
[7] = system: COLO 205 colon
[8] = system: DU-145 prostate
[9] = system: EKVX NSCLC
[10] = system: HCT-116 colon
[11] = system: HCT-15 colon
[12] = system: HL-60(TB) leukemia
[13] = system: HOP-62 NSCLC
[14] = system: HOP-92 NSCLC
[15] = system: HS 578T breast
[16] = system: HT29 colon
[17] = system: IGROV1 ovarian
[18] = system: K-562 leukemia
[19] = system: KM12 colon
[20] = system: M14 melanoma
[21] = system: MALME-3M melanoma
[22] = system: MCF7 breast
[23] = system: MDA-MB-231 breast
[24] = system: MDA-MB-435 melanoma
[25] = system: MDA-MB-468 breast
[26] = system: MOLT-4 leukemia
[27] = system: NCI-H226 lung
[28] = system: NCI-H23 lung
[29] = system: NCI-H322M lung
[30] = system: NCI-H460 NSCLC
[31] = system: NCI-H522 lung
[32] = system: OVCAR-3 ovarian
[33] = system: OVCAR-4 ovarian
[34] = system: OVCAR-5 ovarian
[35] = system: OVCAR-8 ovarian
[36] = system: PC-3 prostate
[37] = system: RXF 393 renal
[38] = system: SF-268 CNS
[39] = system: SF-295 CNS
[40] = system: SF-539 CNS
[41] = system: SK-MEL-2 melanoma
[42] = system: SK-MEL-28 melanoma
[43] = system: SK-MEL-5 melanoma
[44] = system: SK-OV-3 ovarian
[45] = system: SN12C renal
[46] = system: SNB-19 CNS
[47] = system: SNB-75 CNS
[48] = system: SR leukemia
[49] = system: SW-620 colon
[50] = system: T-47D breast
[51] = system: TK-10 renal
[52] = system: U251 glioblastoma
[53] = system: UACC-257 melanoma
[54] = system: UACC-62 melanoma
[55] = system: UO-31 renal

CC(C)[C@H]1C(=O)N[C@@H](CCCN=C(N)N)C(=O)NCC(=O)N[C@@H](CC(=O)O)C(=O)N[C@H](Cc2ccccc2)C(=O)N1C
GI50 [1]: 7.76 µM | TGI [1]: > 100 µM | GI50 [2]: 765 nM | TGI [2]: > 100 µM | GI50 [3]: 39.3 µM | TGI [3]: > 100 µM | GI50 [4]: 4.33 µM | TGI [4]: > 100 µM | GI50 [5]: 2130 nM | TGI [5]: > 100 µM | GI50 [6]: 720 nM | TGI [6]: 14.4 µM | GI50 [7]: > 100 µM | TGI [7]: > 100 µM | GI50 [8]: 8.01 µM | TGI [8]: > 100 µM | GI50 [9]: 2300 nM | TGI [9]: 9.86 µM | GI50 [10]: 26.7 µM | TGI [10]: > 100 µM | GI50 [11]: > 100 µM | TGI [11]: > 100 µM | GI50 [12]: 42.7 µM | TGI [12]: > 100 µM | GI50 [13]: 4.51 µM | TGI [13]: > 100 µM | GI50 [14]: 6.51 µM | TGI [14]: > 100 µM | GI50 [15]: 3.76 µM | TGI [15]: > 100 µM | GI50 [16]: 53.1 µM | TGI [16]: > 100 µM | GI50 [17]: 2380 nM | TGI [17]: > 100 µM | GI50 [18]: 37.7 µM | TGI [18]: > 100 µM | GI50 [19]: 42.5 µM | TGI [19]: > 100 µM | GI50 [20]: > 100 µM | TGI [20]: > 100 µM | GI50 [21]: > 100 µM | TGI [21]: > 100 µM | GI50 [22]: 13.9 µM | TGI [22]: > 100 µM | GI50 [23]: 35.5 µM | TGI [23]: > 100 µM | GI50 [24]: > 100 µM | TGI [24]: > 100 µM | GI50 [25]: 59.8 µM | TGI [25]: > 100 µM | GI50 [26]: 5.83 µM | TGI [26]: 18 µM | GI50 [27]: 5.9 µM | TGI [27]: > 100 µM | GI50 [28]: > 100 µM | TGI [28]: > 100 µM | GI50 [29]: > 100 µM | TGI [29]: > 100 µM | GI50 [30]: 58.3 µM | TGI [30]: > 100 µM | GI50 [31]: 3.98 µM | TGI [31]: > 100 µM | GI50 [32]: 53.9 µM | TGI [32]: > 100 µM | GI50 [33]: 7.1 µM | TGI [33]: > 100 µM | GI50 [34]: 74.5 µM | TGI [34]: > 100 µM | GI50 [35]: 11 µM | TGI [35]: > 100 µM | GI50 [36]: > 100 µM | TGI [36]: > 100 µM | GI50 [37]: 194 nM | TGI [37]: 858 nM | GI50 [38]: 3.29 µM | TGI [38]: > 100 µM | GI50 [39]: > 100 µM | TGI [39]: > 100 µM | GI50 [40]: 27.2 µM | TGI [40]: > 100 µM | GI50 [41]: > 100 µM | TGI [41]: > 100 µM | GI50 [42]: > 100 µM | TGI [42]: > 100 µM | GI50 [43]: > 100 µM | TGI [43]: > 100 µM | GI50 [44]: 41.8 µM | TGI [44]: > 100 µM | GI50 [45]: > 100 µM | TGI [45]: > 100 µM | GI50 [46]: 15.7 µM | TGI [46]: > 100 µM | GI50 [47]: 226 nM | TGI [47]: 871 nM | GI50 [48]: 2590 nM | TGI [48]: 12.2 µM | GI50 [49]: 37.8 µM | TGI [49]: > 100 µM | GI50 [50]: 38.3 µM | TGI [50]: > 100 µM | GI50 [51]: 2000 nM | TGI [51]: > 100 µM | GI50 [52]: 8.88 µM | TGI [52]: > 100 µM | GI50 [53]: > 100 µM | TGI [53]: > 100 µM | GI50 [54]: 70.8 µM | TGI [54]: > 100 µM | GI50 [55]: 5.4 µM | TGI [55]: 99.4 µM
